The subject of assay [1] is Cowpea Aphid (Aphis craccivora). As to the kind of experiment: Cowpea aphid (Aphis craccivora) spray test on potted cowpea plants. The class given is in vivo. To be noted: in comparison with untreated controls, population reduction recorded after 24, 72 and 120 hours, read-out: mortality against cowpea aphid. On the procedure:
B.1. Cowpea Aphid (Aphis craccivora)
The active compounds were formulated in 50:50 acetone:water. Potted cowpea plants colonized with 100-150 aphids of various stages were sprayed after the pest population has been recorded. Population reduction was recorded after 24, 72, and 120 hours.

In assay [2] the test system is Green Peach Aphid (Myzus persicae). As to the kind of experiment: Green peach aphid (Myzus persicae) leaf dip test on pepper plants. Conditions: foliar, 120 h, in comparison with untreated controls, determined after 5 days, read-out: mortality against green-peach aphid. The class given is in vivo. On the procedure:
B.2. Green Peach Aphid (Myzus persicae)
Pepper plants in the 2nd leaf-pair stage (variety ‘California Wonder’) were infested with approximately 40 laboratory-reared aphids by placing infested leaf sections on top of the test plants. The leaf sections were removed after 24 hours. The leaves of the intact plants were dipped into gradient solutions of the test compound. Aphid mortality on the treated plants, relative to mortality on check plants, was determined after 5 days.

Structures are written as SMILES.

For the molecule `Cc1ccsc1C(Cc1ccncc1)NC1=NCCS1` (stereo not drawn) [C.I.9], in assay [1], the mortality at 300 ppm is above 80%. In the case of `Brc1ccsc1C(Cc1ccncc1)NC1=NCCS1` (stereo not drawn) [C.I.10], the mortality at 300 ppm in assay [2] is above 80%. Take `c1ccc(CC(NC2=NCCS2)c2cccs2)nc1` (stereo not drawn) [C.I.12]: the mortality at 300 ppm in assay [1] is above 80%.

The values are drawn from patent US20100041700A1, “Substituted 1-(Azolin-2-yl)-Amino-1,2-Heterocyclyl-Ethane Compounds For Combating Pests” (BASF SE, priority 2006, published 2010).
